Results: PubChem BioAssay (NCI)
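Grown in 96-well plates, cells were treated for 48 hours with each compound at five concentrations. Insufficient inhibition: endpoint recorded as highest concentration tested. GI50 = concentration required for 50% inhibition of growth. Definition used: TGI = concentration required for complete inhibition of growth.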

Legend:
Experiment in all cases: DTP human tumour cell line panel, 48 h
HCC-2998 colon = tested on: HCC-2998 colon
SF-268 CNS = tested on: SF-268 CNS
RPMI-8226 leukemia = tested on: RPMI-8226 leukemia
LOX IMVI melanoma = tested on: LOX IMVI melanoma
A549 NSCLC = tested on: A549 NSCLC
NCI-H460 lung = tested on: NCI-H460 lung
HOP-62 NSCLC = tested on: HOP-62 NSCLC
CCRF-CEM leukemia = tested on: CCRF-CEM leukemia
OVCAR-8 ovarian = tested on: OVCAR-8 ovarian
DU-145 prostate = tested on: DU-145 prostate
TK-10 renal = tested on: TK-10 renal
SNB-75 CNS = tested on: SNB-75 CNS
MDA-MB-231 breast = tested on: MDA-MB-231 breast
NCI-H522 lung = tested on: NCI-H522 lung
K-562 leukemia = tested on: K-562 leukemia
MOLT-4 leukemia = tested on: MOLT-4 leukemia
HT29 colon = tested on: HT29 colon
SR leukemia = tested on: SR leukemia
CAKI-1 renal = tested on: CAKI-1 renal
T-47D breast = tested on: T-47D breast
SK-MEL-2 melanoma = tested on: SK-MEL-2 melanoma
RXF 393 renal = tested on: RXF 393 renal
HL-60(TB) leukemia = tested on: HL-60(TB) leukemia
SK-MEL-5 melanoma = tested on: SK-MEL-5 melanoma
NCI/ADR-RES ovarian = tested on: NCI/ADR-RES ovarian
UACC-257 melanoma = tested on: UACC-257 melanoma
EKVX NSCLC = tested on: EKVX NSCLC
HS 578T breast = tested on: HS 578T breast
U251 CNS = tested on: U251 CNS
MCF7 breast = tested on: MCF7 breast
SK-MEL-28 melanoma = tested on: SK-MEL-28 melanoma
HOP-92 NSCLC = tested on: HOP-92 NSCLC
OVCAR-5 ovarian = tested on: OVCAR-5 ovarian
SF-539 CNS = tested on: SF-539 CNS
OVCAR-4 ovarian = tested on: OVCAR-4 ovarian
UO-31 renal = tested on: UO-31 renal
A498 renal = tested on: A498 renal
NCI-H226 lung = tested on: NCI-H226 lung
MDA-MB-435 = tested on: MDA-MB-435
NCI-H23 lung = tested on: NCI-H23 lung
SNB-19 CNS = tested on: SNB-19 CNS
KM12 colon = tested on: KM12 colon
COLO 205 colon = tested on: COLO 205 colon
SF-295 CNS = tested on: SF-295 CNS
PC-3 prostate = tested on: PC-3 prostate
BT-549 breast = tested on: BT-549 breast
ACHN renal = tested on: ACHN renal
HCT-116 colon = tested on: HCT-116 colon
SW-620 colon = tested on: SW-620 colon
HCT-15 colon = tested on: HCT-15 colon
786-0 renal = tested on: 786-0 renal
UACC-62 melanoma = tested on: UACC-62 melanoma
SK-OV-3 ovarian = tested on: SK-OV-3 ovarian
OVCAR-3 ovarian = tested on: OVCAR-3 ovarian
M14 melanoma = tested on: M14 melanoma

SMILES: COC(=O)/C=C1/SC(=Nc2ccc(C(F)(F)F)cc2)N(CCc2c[nH]c3ccc(O)cc23)C1=O
- GI50 (HCC-2998 colon): 1.94 µM
- TGI (HCC-2998 colon): 3.56 µM
- GI50 (SF-268 CNS): 1.69 µM
- TGI (SF-268 CNS): 5.36 µM
- GI50 (RPMI-8226 leukemia): 0.722 µM
- TGI (RPMI-8226 leukemia): 3.26 µM
- GI50 (LOX IMVI melanoma): 1.25 µM
- TGI (LOX IMVI melanoma): 2.68 µM
- GI50 (A549 NSCLC): 3.05 µM
- TGI (A549 NSCLC): > 100 µM
- GI50 (NCI-H460 lung): 1.87 µM
- TGI (NCI-H460 lung): 3.79 µM
- GI50 (HOP-62 NSCLC): 1.75 µM
- TGI (HOP-62 NSCLC): 3.85 µM
- GI50 (CCRF-CEM leukemia): 0.569 µM
- TGI (CCRF-CEM leukemia): 6.69 µM
- GI50 (OVCAR-8 ovarian): 1.62 µM
- TGI (OVCAR-8 ovarian): 6.04 µM
- GI50 (DU-145 prostate): 2.21 µM
- TGI (DU-145 prostate): > 100 µM
- GI50 (TK-10 renal): 2.25 µM
- TGI (TK-10 renal): 5.76 µM
- GI50 (SNB-75 CNS): 2.27 µM
- TGI (SNB-75 CNS): 9.68 µM
- GI50 (MDA-MB-231 breast): 1.91 µM
- TGI (MDA-MB-231 breast): 4.67 µM
- GI50 (NCI-H522 lung): 1.5 µM
- TGI (NCI-H522 lung): 3.25 µM
- GI50 (K-562 leukemia): 1.55 µM
- TGI (K-562 leukemia): > 100 µM
- GI50 (MOLT-4 leukemia): 0.349 µM
- TGI (MOLT-4 leukemia): 10.1 µM
- GI50 (HT29 colon): 1.75 µM
- TGI (HT29 colon): 3.43 µM
- GI50 (SR leukemia): 0.416 µM
- TGI (SR leukemia): 5.25 µM
- GI50 (CAKI-1 renal): 2.71 µM
- TGI (CAKI-1 renal): > 100 µM
- GI50 (T-47D breast): 2.07 µM
- TGI (T-47D breast): 9.64 µM
- GI50 (SK-MEL-2 melanoma): 1.52 µM
- TGI (SK-MEL-2 melanoma): 3.22 µM
- GI50 (RXF 393 renal): 1.16 µM
- TGI (RXF 393 renal): 2.59 µM
- GI50 (HL-60(TB) leukemia): 1.57 µM
- TGI (HL-60(TB) leukemia): 6.65 µM
- GI50 (SK-MEL-5 melanoma): 1.86 µM
- TGI (SK-MEL-5 melanoma): 3.99 µM
- GI50 (NCI/ADR-RES ovarian): 2.16 µM
- TGI (NCI/ADR-RES ovarian): 8.96 µM
- GI50 (UACC-257 melanoma): 1.94 µM
- TGI (UACC-257 melanoma): 5.17 µM
- GI50 (EKVX NSCLC): 3.2 µM
- TGI (EKVX NSCLC): > 100 µM
- GI50 (HS 578T breast): 1.87 µM
- TGI (HS 578T breast): 5.78 µM
- GI50 (U251 CNS): 1.46 µM
- TGI (U251 CNS): 3.05 µM

SMILES: COc1ccc(C2c3c(n(C)c(=O)n(C)c3=O)OC(N(C)C)(N(C)C)C2(F)F)cc1 (configuration not stated)
- TGI (MCF7 breast): > 100 µM
- TGI (HCC-2998 colon): > 100 µM
- TGI (SF-268 CNS): > 100 µM
- TGI (SK-MEL-28 melanoma): > 100 µM
- TGI (RPMI-8226 leukemia): > 100 µM
- TGI (HOP-92 NSCLC): > 100 µM
- TGI (OVCAR-5 ovarian): > 100 µM
- TGI (LOX IMVI melanoma): > 100 µM
- TGI (A549 NSCLC): > 100 µM
- TGI (NCI-H460 lung): > 100 µM
- TGI (SF-539 CNS): > 100 µM
- TGI (OVCAR-4 ovarian): > 100 µM
- TGI (UO-31 renal): > 100 µM
- TGI (A498 renal): > 100 µM
- TGI (NCI-H226 lung): > 100 µM
- TGI (HOP-62 NSCLC): > 100 µM
- TGI (CCRF-CEM leukemia): > 100 µM
- TGI (MDA-MB-435): > 100 µM
- TGI (NCI-H23 lung): > 100 µM
- TGI (SNB-19 CNS): > 100 µM
- TGI (DU-145 prostate): > 100 µM
- TGI (TK-10 renal): > 100 µM
- TGI (SNB-75 CNS): > 100 µM
- TGI (KM12 colon): > 100 µM
- TGI (MDA-MB-231 breast): > 100 µM
- TGI (COLO 205 colon): > 100 µM
- TGI (K-562 leukemia): > 100 µM
- TGI (SF-295 CNS): > 100 µM
- TGI (MOLT-4 leukemia): > 100 µM
- TGI (PC-3 prostate): > 100 µM
- TGI (CAKI-1 renal): > 100 µM
- TGI (T-47D breast): > 100 µM
- TGI (SK-MEL-2 melanoma): > 100 µM
- TGI (RXF 393 renal): > 100 µM
- TGI (BT-549 breast): > 100 µM
- TGI (ACHN renal): > 100 µM
- TGI (HCT-116 colon): > 100 µM
- TGI (SW-620 colon): > 100 µM
- TGI (HCT-15 colon): > 100 µM
- TGI (786-0 renal): > 100 µM
- TGI (SK-MEL-5 melanoma): > 100 µM
- TGI (NCI/ADR-RES ovarian): > 100 µM
- TGI (UACC-62 melanoma): > 100 µM
- TGI (UACC-257 melanoma): > 100 µM
- TGI (SK-OV-3 ovarian): > 100 µM
- TGI (OVCAR-3 ovarian): > 100 µM
- TGI (M14 melanoma): > 100 µM
- TGI (EKVX NSCLC): > 100 µM
- TGI (U251 CNS): > 100 µM
